Values joined by “and” are separate entries in the source; they are usually repeats but may differ in a detail not shown here. Identical values can stand only once.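 In this assay, cells in 96-well plates receive the compound at five concentrations for 48 hours. Endpoints are linearly interpolated between the surrounding concentrations. GI50 marks 50% less growth. At the TGI there is no net growth.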
Key:
Assay in all cases: NCI tumour cell line growth inhibition, 48 h
A549 NSCLC = system: A549 NSCLC
HT29 colon = system: HT29 colon
MCF7 breast = system: MCF7 breast
SK-MEL-2 melanoma = system: SK-MEL-2 melanoma
SK-MEL-28 melanoma = system: SK-MEL-28 melanoma
TK-10 renal = system: TK-10 renal
U251 CNS = system: U251 CNS
UACC-62 melanoma = system: UACC-62 melanoma

| Compound | GI50 (A549 NSCLC) | TGI (A549 NSCLC) | TGI (HT29 colon) | GI50 (MCF7 breast) | TGI (MCF7 breast) | GI50 (SK-MEL-2 melanoma) | TGI (SK-MEL-2 melanoma) [µM] | GI50 (SK-MEL-28 melanoma) | TGI (SK-MEL-28 melanoma) | GI50 (TK-10 renal) | TGI (TK-10 renal) | GI50 (U251 CNS) | TGI (U251 CNS) | GI50 (UACC-62 melanoma) | TGI (UACC-62 melanoma) | GI50 (HT29 colon) [µM] |
| --- | --- | --- | --- | --- | --- | --- | --- | --- | --- | --- | --- | --- | --- | --- | --- | --- |
| CC(=O)Oc1cc2c(OC(C)=O)c(-c3c(C)cc4c(C(C)C)c(OC(C)=O)c(OC(C)=O)cc4c3OC(C)=O)c(C)cc2c(C(C)C)c1OC(C)=O | 14.7 µM and 5.12 µM and 9.61 µM | 30.7 µM and 9.92 µM and 22.2 µM | 40.2 µM and > 74.8 µM and 62.7 µM | 6.42 µM and 7.03 µM and 10.3 µM | 19.5 µM and 21.5 µM and 27.1 µM | 7.83 µM and 10.8 µM | 31.8 | 5.12 µM and 15.3 µM and 18.8 µM | 12.4 µM and 35.1 µM and 41.1 µM | 7.37 µM and 5.6 µM and 16.2 µM | 21.9 µM and 17.4 µM and > 42.8 µM | 4.84 µM and 4.85 µM and 9.43 µM | 9.38 µM and 24.7 µM and 35.7 µM | 1.03 µM and 4.38 µM and 5.54 µM | 2.2 µM and 8.65 µM and 11.7 µM |  |
| O=C(CCC(C(=O)c1ccccc1)c1ccccc1)c1ccccc1 (stereo unspecified) | 7.29 µM | > 100 µM | > 100 µM | 15.1 µM | > 100 µM | 7.07 µM | 46.7 | 55.7 µM | > 100 µM | 38.6 µM | > 100 µM | 13.4 µM | > 100 µM | 7.15 µM | > 100 µM | 4.21 |
| Cc1cc(O)cc(C)c1/C=C/c1cncc(-c2nn[nH]n2)c1 | > 25 µM | > 25 µM | > 25 µM | > 25 µM | > 25 µM | > 25 µM | > 25 | > 25 µM | > 25 µM | > 25 µM | > 25 µM | > 25 µM | > 25 µM | > 25 µM | > 25 µM | > 25 |
| CCOC(=O)[C@@H](C)C[C@H](Cc1ccccc1)NC(=O)c1csc([C@@H](C[C@H](C(C)C)N(C)C(=O)[C@H](CC)NC(=O)[C@H]2CCCCN2C)OC(C)=O)n1 | 0.00415 µM | > 16.7 µM | > 16.7 µM | < 0.00167 µM | > 16.7 µM | < 0.00167 µM | > 16.7 |  |  |  | > 16.7 µM | 0.0031 µM | > 16.7 µM | < 0.00167 µM | > 16.7 µM | < 0.00167 |
| C/C(=C\COc1c2c(cc3c1CCO3)OC1(C=C2)OC(CC/C(C)=C/COc2c3ccoc3cc3oc(=O)ccc23)C(C)(C)O1)CCC(O)C(C)(C)O (stereo unspecified) | 13.3 µM | > 100 µM | > 100 µM | 5.62 µM | > 100 µM | 9.58 µM | > 100 | 16.9 µM | > 100 µM | 78.8 µM | > 100 µM | 44.4 µM | > 100 µM | 4.87 µM | > 100 µM | 22.4 |
| COc1ccc2c(c1OC)OCC(CN(C)C)C2=O (stereo unspecified) |  | > 63.9 µM | 40.1 µM |  | 27.5 µM |  | 30.5 |  | 32.3 µM |  | 34.4 µM |  | 34.1 µM |  | 32.1 µM |  |
| COc1cnc2c(c1)C(=O)c1c-2n(CCCNC(C)C)c(=O)c2cc(F)ccc12 | 0.0718 µM | 0.239 µM | 0.33 µM | 0.0318 µM | 2.08 µM | 0.51 µM | 1.92 | 0.94 µM | 2.51 µM | 0.178 µM | 0.623 µM | 0.0788 µM | 0.397 µM | 0.271 µM | 1.27 µM | 0.0731 |
| CSc1ncnc2c1ncn2C1OC(CO)C(O)OC1O (stereo unspecified) |  | > 100 µM | > 37.4 µM |  | > 100 µM |  | 18.9 |  | 69.5 µM |  | 1.19 µM |  | 30.1 µM |  | 18.5 µM |  |
| C=C1C(=O)O[C@@H]2C1C[C@@H](O)C(=C)CC/C=C(\C)CCC[C@H](C)[C@H]2OC(C)=O (stereo partly specified) | 22.9 µM | 48.8 µM | > 100 µM | 3.04 µM | 18.5 µM | 12.9 µM | 31.1 | 4.78 µM | 23 µM | 2.11 µM | 5.57 µM | 5.83 µM | 23.3 µM | 7.45 µM | 21.7 µM | 4.17 |
| O=c1oc2ccc(-n3c(=O)c4ccccc4c4ccccc4c3=O)cc2c2ccccc12 |  | > 100 µM | > 100 µM |  | > 100 µM |  | > 100 |  | > 100 µM |  | > 100 µM |  | 63.6 µM |  | > 100 µM |  |
| O=C(/C(=C/c1ccc([N+](=O)[O-])cc1)SCc1ccc(F)cc1)c1ccc(Cl)cc1 | > 100 µM | > 100 µM | 6.2 µM |  |  | 13.8 µM | 36.4 | 16.4 µM | 45.8 µM | 20.1 µM | 54.8 µM | 2.07 µM | 4.02 µM | 5.4 µM | 36.6 µM | 2.38 |
| CCCCCCCCCCCCCCCCOP(=O)(O)OP(=O)(O)OCC1OC(n2ccc(N)nc2=O)C(O)C1O (stereo unspecified) |  | > 100 µM | > 100 µM | > 100 µM and 19.3 µM | > 100 µM |  | > 100 |  | > 100 µM |  | > 100 µM |  | > 100 µM | > 100 µM and 21.3 µM | > 100 µM |  |
